Experimental findings from paper PMC5887109, “Unravelling the Molecular Determinants of Bee Sensitivity to Neonicotinoid Insecticides” (Current Biology, 2018) are described below.

The subject of data set [1] is transgenic Drosophila expressing honeybee CYP9Q3. The experiment in a line: Insecticide bioassay of transgenic Drosophila expressing CYP9Q3. It is filed as in vivo, Drosophila melanogaster. To be noted: Act5C-GAL4 driven; ratio of LC50 values. As to the method: (§1) Fly lines were made homozygous for the transgene integrations. […] LC50 values were calculated as above.

Data set [2] addresses nicotinic acetylcholine receptor (nAChR). The experiment in a line: [3H]imidacloprid displacement, honeybee head membrane preparations. It is filed as binding, A. mellifera. To be noted: honeybee head membranes; 95% CI given in text. As to the method:
[^3H]imidacloprid (specific activity 1.406 GBq μmol^−1) displacement studies were conducted using membrane preparations isolated from frozen (−80°C) honeybee and bumble bee heads, respectively, following previously published protocols. Briefly, bee heads weighing 10cg were homogenized in 200cml ice-cold 0.1cM potassium phosphate buffer, pH 7.4 containing 95cmM sucrose using a motor-driven Ultra Turrax blender. […] Assays were performed in a 96-well microtiter plate with bonded GF/C filter membrane (Packard UniFilter-96, GF/C) and consisted of 200 μL of homogenate (0.48cmg protein), 25 μL of [^3H]imidacloprid (576cpM) and 25 μL of competing ligand. Ligand concentrations used ranged from 0.001 to 10c000cnM and were tested at least in duplicate per competition assay. The assay was started by the addition of homogenate and incubated for 60cmin at room temperature. Bound [^3H]imidacloprid was quantified by filtration into a second 96-well filter plate (conditioned with ice-cold 100cmM potassium phosphate buffer, pH 7.4 (including BSA 5cg liter−1)) using a commercial cell harvester (Brandel). […] Each well was then loaded with 25 μL of scintillation cocktail (Microszint-O-Filtercount, Packard) and the plate counted in a Topcount scintillation counter (Packard). Non-specific binding was determined using a final concentration of 10cμM unlabelled imidacloprid. […]

The subject of data set [3] is transgenic Drosophila expressing honeybee CYP9Q2. The experiment in a line: Insecticide bioassay of transgenic Drosophila expressing CYP9Q2. The data set is classed as in vivo, Drosophila melanogaster. To be noted: Act5C-GAL4 driven; ratio of LC50 values. How it is done:
as §1

Data set [4] relates to transgenic Drosophila expressing honeybee CYP9Q1. The experiment in a line: Insecticide bioassay of transgenic Drosophila expressing CYP9Q1. The data set is classed as in vivo, Drosophila melanogaster. The conditions noted are these: Act5C-GAL4 driven; ratio of LC50 values. As to the method:
as §1

The subject of data set [5] is transgenic Drosophila expressing B. terrestris CYP9Q4. The experiment in a line: Insecticide bioassay of transgenic Drosophila expressing CYP9Q4. It is filed as in vivo, Drosophila melanogaster. The conditions noted are these: Act5C-GAL4 driven; ratio of LC50 values. How it is done: as §1
Data set [6] relates to A. mellifera. The experiment in a line: Acute contact (topical) insecticide bioassay of honeybees, with or without ABT. To be noted: honeybees pretreated with ABT (1-aminobenzotriazole). How it is done: Acute contact insecticide assays were performed on female A. mellifera following standard methods OECD 2013 [30]. Bioassays of B. terrestris were based on the OECD guidelines developed for honeybees but with bees assayed in individual Nicot cages. Bees were starved of sucrose solution for up to 2 hr to encourage feeding during the experiment. […] Controls were fed a solution of sucrose containing a concentration of acetone matching that of the highest treatment concentration. After 4-6 hr the syringes were assessed to see if bees had consumed the insecticide-sucrose solution. Those that had not consumed all of the solution were excluded from the experiment. Mortality was assessed 48 hr after feeding and lethal concentrations (LC50 values) were calculated by probit analysis using Genstat version 16 (VSN International). For synergist bioassays, B. terrestris or A. mellifera workers were first treated with 20 μg of piperonyl butoxide or 1 μg of aminobenzotriazole applied to the dorsal thorax. Synergist bioassays included an additional control group treated only with the synergist. 1 hr after synergist application, bees were then treated with the appropriate insecticide dosage as above.

Data set [7] deals with transgenic Drosophila expressing B. terrestris CYP9Q5. The experiment in a line: Insecticide bioassay of transgenic Drosophila expressing CYP9Q5. It is filed as in vivo, Drosophila melanogaster. To be noted: Act5C-GAL4 driven; ratio of LC50 values. As to the method: as §1
Data set [8] addresses CYP9Q4 (Bombus terrestris, UniProt A0A9B0BBT5). The experiment in a line: Metabolism by recombinant CYP9Q4/CPR microsomes, LC-MS/MS. The text has this:
(§2) All bee P450 (see Table S3 for accession numbers) and house fly NADPH-dependent cytochrome P450 reductase (CPR) (GenBank accession number Q07994) genes were obtained by gene synthesis (Geneart, CA, USA) and inserted into the pDEST8 expression vector (Invitrogen). Codon optimization of all bee genes was used to optimize expression in lepidopteran cell lines. The PFastbac1 vector with no inserted DNA was used to produce a control virus. The recombinant baculovirus DNA was constructed and transfected into Trichoplusia ni (High five cells, Thermo Fisher) using the Bac-to-Bac baculovirus expression system (Invitrogen) according to the manufacturer’s instructions. The titer of the recombinant virus was determined following protocols of the supplier. High Five cells grown to a density of 2 × 10^6 cells ml^-1 were co-infected with recombinant baculoviruses containing each bee P450 and CPR with a range of MOI (multiplicity of infection) ratios to identify the optimal conditions. Control cells were co-infected with the baculovirus containing vector with no insert (ctrl-virus) and the recombinant baculovirus expressing CPR using the same MOI ratios. Ferric citrate and δ-aminolevulinic acid hydrochloride were added to a final concentration of 0.1 mM at the time of infection and 24 h after infection to compensate the low levels of endogenous heme in the insect cells. After 48 h, cells were harvested, washed with PBS, and microsomes of the membrane fraction prepared according to standard procedures and stored at −80°C [31]. Briefly, pellets were homogenized for 30 s in 0.1M Na/K-phosphate buffer, pH 7.4 containing 1mM EDTA and DTT and 200mM sucrose using a Fastprep (MP Biomedicals), filtered through miracloth and centrifuging for 10 min at 680 g at 4°C. The supernatant was then centrifuged for 1 h at 100,000 g at 4°C, with the pellet subsequently resuspended in 0.1M Na/K-phosphate buffer, pH 7.6 containing 1mM EDTA and DTT and 10% glycerol using a Dounce tissue grinder. P450 expression and functionality was estimated by measuring CO-difference spectra in reduced samples using a Specord 200 Plus Spectrophotometer (Analytik Jena) and scanning from 500 nm to 400 nm. The protein content of samples was determined using Bradford reagent (Sigma) and bovine serum albumin (BSA) as a reference.
(§3) The total assay volume was 200 μL using three replicates for each data point. […] The assay was stopped by the addition of ice-cold acetonitrile (to 80% final concentration), centrifuged for 10 min at 3000 g and the supernatant subsequently analyzed by tandem mass spectrometry as described previously. […] Substrate turnover from two independent reactions were plotted versus controls and Michaelis-Menten kinetics determined using GraphPad Prism version 7 (GraphPad Software, CA, USA).

In data set [9] the test system is CYP9Q5. The experiment in a line: Metabolism by recombinant CYP9Q5/CPR microsomes, LC-MS/MS.
Excerpt: as §2, §3

Data set [10] concerns CYP6AS5. Nature of the data set: Metabolism by recombinant CYP6AS5/CPR microsomes, LC-MS/MS. The conditions noted are these: thiacloprid hydroxylation.
Excerpt: All bee P450 (see Table S3 for accession numbers) and house fly NADPH-dependent cytochrome P450 reductase (CPR) (GenBank accession number Q07994) genes were obtained by gene synthesis (Geneart, CA, USA) and inserted into the pDEST8 expression vector (Invitrogen). Codon optimization of all bee genes was used to optimize expression in lepidopteran cell lines. The PFastbac1 vector with no inserted DNA was used to produce a control virus. The recombinant baculovirus DNA was constructed and transfected into Trichoplusia ni (High five cells, Thermo Fisher) using the Bac-to-Bac baculovirus expression system (Invitrogen) according to the manufacturer’s instructions. The titer of the recombinant virus was determined following protocols of the supplier. […] The protein content of samples was determined using Bradford reagent (Sigma) and bovine serum albumin (BSA) as a reference.
as §3

The mark [11] stands for this setting: apparent value, mean ± SD (n=3), decimal commas.
The mark [12] stands for this setting: hydroxylation (thiacloprid) or N-desmethylation (acetamiprid).

CYP9Q4, sequence (Q07994 whole entry): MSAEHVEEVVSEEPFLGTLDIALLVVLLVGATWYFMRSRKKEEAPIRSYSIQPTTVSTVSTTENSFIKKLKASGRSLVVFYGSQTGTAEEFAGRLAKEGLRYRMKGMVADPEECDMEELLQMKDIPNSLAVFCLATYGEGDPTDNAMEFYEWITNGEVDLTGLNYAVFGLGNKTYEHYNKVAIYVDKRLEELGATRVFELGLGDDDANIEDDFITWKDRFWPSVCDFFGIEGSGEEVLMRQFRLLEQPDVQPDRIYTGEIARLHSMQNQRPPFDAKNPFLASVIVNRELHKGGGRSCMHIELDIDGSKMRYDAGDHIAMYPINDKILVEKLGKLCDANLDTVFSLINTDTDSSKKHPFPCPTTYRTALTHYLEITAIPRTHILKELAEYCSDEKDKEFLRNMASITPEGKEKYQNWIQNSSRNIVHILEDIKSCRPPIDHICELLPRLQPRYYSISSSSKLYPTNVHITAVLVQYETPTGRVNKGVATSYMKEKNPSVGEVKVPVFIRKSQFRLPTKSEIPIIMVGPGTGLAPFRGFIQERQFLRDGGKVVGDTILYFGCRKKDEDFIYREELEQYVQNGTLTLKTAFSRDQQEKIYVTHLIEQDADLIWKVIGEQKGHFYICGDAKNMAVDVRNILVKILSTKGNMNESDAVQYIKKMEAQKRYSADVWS
CYP9Q4, sequence (A0A9B0BBT5 entry or part of it): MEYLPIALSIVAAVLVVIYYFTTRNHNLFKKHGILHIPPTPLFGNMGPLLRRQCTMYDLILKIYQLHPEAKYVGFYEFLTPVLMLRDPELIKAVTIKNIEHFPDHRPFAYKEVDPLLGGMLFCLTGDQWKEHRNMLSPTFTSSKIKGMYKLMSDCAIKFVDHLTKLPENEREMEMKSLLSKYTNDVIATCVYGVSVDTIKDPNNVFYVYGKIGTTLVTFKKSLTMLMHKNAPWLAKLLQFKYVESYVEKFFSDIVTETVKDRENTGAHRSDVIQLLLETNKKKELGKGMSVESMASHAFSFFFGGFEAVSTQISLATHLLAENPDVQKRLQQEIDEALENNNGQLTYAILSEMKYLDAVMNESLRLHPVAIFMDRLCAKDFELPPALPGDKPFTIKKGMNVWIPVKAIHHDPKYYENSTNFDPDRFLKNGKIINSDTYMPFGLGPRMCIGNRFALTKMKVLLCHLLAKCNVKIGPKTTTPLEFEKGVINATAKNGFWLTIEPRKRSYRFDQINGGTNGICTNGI

Regarding `O=[N+]([O-])NC1=NCCN1Cc1ccc(Cl)nc1` [imidacloprid], the “resistance compared to control flies without the transgene” value in data set [1] is “no significant differences in sensitivity”; in data set [3], “no significant differences in sensitivity”; in data set [4], “no significant differences in sensitivity”; in data set [5] it was “no significant differences”; in data set [7], “no significant differences”. The compound further registered a concentration for half-maximal inhibition (IC50) in data set [2] of 1.2 nM. Besides, in data set [6], the “fold more sensitive after pretreatment with ABT” value is 2.7 fold.

In data set [2], `N#C/N=C1\SCCN1Cc1ccc(Cl)nc1` [thiacloprid] gave an IC50 of 1.1 nM. Besides, the Michaelis constant (Km) at 45 min in [8] (Bombus terrestris) was 11.8 µM; in [9] (Bombus terrestris), 30 µM. Also, the “Vmax, thiacloprid hydroxylation” value in [8] (setting [11]) is 18,94±0,64 pmol min-1 mg-1; in data set [9] (setting [11]), 4,29±0,71 pmol min-1 mg-1. The figures for the “metabolism by the recombinant P450 (in words)” value in data set [8] (setting [12]), in data set [9] (setting [12]) and in data set [10] were “metabolize thiacloprid to its 5-hydroxy form”, “metabolize thiacloprid to its 5-hydroxy form” and “weak activity”, respectively.

The term IC50 denotes the concentration needed to halve the response being measured. A high value points to weaker potency in that assay. A word on the Km: it is the substrate concentration at which the rate is half of its maximum.
